Test results reported in ChEMBL document CHEMBL1201862, “PubChem BioAssay data set” (2004).
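The compound was tested at five concentrations on cells cultured in 96-well plates, with a 48-hour exposure period. Abbreviation: GI50, concentration required for 50% inhibition of growth.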 The source made the active and inactive calls. Rule as the data show it: active = GI50 up to about 1.1 µM and inactive = higher.

Experiments:
Experiment in all cases: DTP human tumour cell line panel, 48 h
[1] = tested on: 786-0
[2] = tested on: A549
[3] = tested on: CCRF-CEM
[4] = tested on: HCT-116
[5] = tested on: K562
[6] = tested on: NCI-H226
[7] = tested on: NCI/ADR-RES
[8] = tested on: OVCAR-3
[9] = tested on: OVCAR-4
[10] = tested on: OVCAR-8
[11] = tested on: RPMI-8226
[12] = tested on: RXF 393
[13] = tested on: SF-539
[14] = tested on: SK-MEL-28
[15] = tested on: SK-OV-3
[16] = tested on: SW-620
[17] = tested on: UACC-257
[18] = tested on: UO-31
[19] = tested on: MOLT-4

Row | SMILES | GI50 [1] | GI50 [2] | GI50 [3] | GI50 [4] | GI50 [5] | GI50 [6] | GI50 [7] | GI50 [8] | GI50 [9] | GI50 [10] | GI50 [11] | GI50 [12] | GI50 [13] | GI50 [14] | GI50 [15] | GI50 [16] | GI50 [17] | GI50 [18] | GI50 [19]
1 | COC1=C(Br)C(O)C2(C=C1Br)CC(C(=O)NCCCCNC(=O)C1=NOC3(C=C(Br)C(OC)=C(Br)C3O)C1)=NO2 (stereo unspecified) | 31.1 µM (inactive) | 30.6 µM (inactive) | 10.1 µM (inactive) | 18.2 µM (inactive) | 16.3 µM (inactive) | 4.73 µM (inactive) | 51.2 µM (inactive) | 15.6 µM (inactive) | 54.3 µM (inactive) | 20.3 µM (inactive) | 8.99 µM (inactive) | 24.8 µM (inactive) | 19.8 µM (inactive) | 25.5 µM (inactive) | 27.2 µM (inactive) | 37.1 µM (inactive) | 16.3 µM (inactive) | 43.2 µM (inactive) | 
2 | Cc1nc2cn3c(c2c(=O)[nH]1)CCCCC3 | > 100 µM (inactive) |  | > 100 µM (inactive) | > 100 µM (inactive) | > 100 µM (inactive) | > 100 µM (inactive) | > 100 µM (inactive) |  | > 100 µM (inactive) | > 100 µM (inactive) | > 100 µM (inactive) | > 100 µM (inactive) | > 100 µM (inactive) | > 100 µM (inactive) | > 100 µM (inactive) | > 100 µM (inactive) | > 100 µM (inactive) | > 100 µM (inactive) | > 100 µM (inactive)
3 | CC(=O)C(I(OS(=O)(=O)c1ccc(C)cc1)c1ccccc1)=P(c1ccccc1)(c1ccccc1)c1ccccc1 | 30.1 µM (inactive) | 24.4 µM (inactive) | 26.9 µM (inactive) | 21.2 µM (inactive) | 30.6 µM (inactive) | 17.1 µM (inactive) | > 100 µM (inactive) | 20.2 µM (inactive) | 14.8 µM (inactive) | 32.6 µM (inactive) | 21.4 µM (inactive) | 42.1 µM (inactive) | 18.2 µM (inactive) | 18 µM (inactive) | 43.6 µM (inactive) |  | 22.6 µM (inactive) | > 100 µM (inactive) | 26.4 µM (inactive)
4 | Cc1cc2c(cc1C)[n+]([O-])c(N1CCN(c3ccc([N+](=O)[O-])cc3)CC1)c(C#N)[n+]2[O-] | 14.1 µM (inactive) | 29.8 µM (inactive) | > 100 µM (inactive) | 61.7 µM (inactive) |  | 35.6 µM (inactive) | 26.2 µM (inactive) |  | 39.4 µM (inactive) | 16.6 µM (inactive) | > 100 µM (inactive) | 13 µM (inactive) |  | > 100 µM (inactive) | 14.2 µM (inactive) | > 100 µM (inactive) | 85.9 µM (inactive) | 23.5 µM (inactive) | 
5 | BrCC(Br)(c1ccccc1)c1ccccc1-c1cc(-c2ccccc2)cc(-c2ccccc2)n1 (stereo unspecified) | 3.64 µM (inactive) | 4.71 µM (inactive) | 3.66 µM (inactive) | 2.81 µM (inactive) | 0.893 µM (active) | 3.72 µM (inactive) | 33.9 µM (inactive) |  | 4.05 µM (inactive) | 3.06 µM (inactive) | 0.908 µM (active) | 2 µM (inactive) | 4.3 µM (inactive) | 4.46 µM (inactive) |  | 3.16 µM (inactive) | 2.04 µM (inactive) | 10.7 µM (inactive) | 3.26 µM (inactive)
6 | Cc1cc(N(CCC#N)CCC#N)ccc1C(/N=N/c1ccccc1)=N\NC(=O)c1cc(Cl)ccc1O | 23.9 µM (inactive) | 29.4 µM (inactive) | 16.6 µM (inactive) | 15.7 µM (inactive) | 22.4 µM (inactive) | 20.5 µM (inactive) | 20.1 µM (inactive) | 18 µM (inactive) | 20.7 µM (inactive) | 21.5 µM (inactive) | 64.7 µM (inactive) | 23.3 µM (inactive) | 20.5 µM (inactive) |  | 71.4 µM (inactive) |  | 18.6 µM (inactive) | 14.8 µM (inactive) | 39 µM (inactive)
7 | Cc1nc2c(=O)n(C)c(=O)n(C)c2o1 | > 100 µM (inactive) | > 100 µM (inactive) | > 100 µM (inactive) | > 100 µM (inactive) | > 100 µM (inactive) | > 100 µM (inactive) | > 100 µM (inactive) | > 100 µM (inactive) | > 100 µM (inactive) | > 100 µM (inactive) | > 100 µM (inactive) | > 100 µM (inactive) | > 100 µM (inactive) |  | > 100 µM (inactive) | > 100 µM (inactive) | > 100 µM (inactive) | > 100 µM (inactive) | > 100 µM (inactive)
8 | N#CC12C(=O)N=C(N)C1(C#N)C(c1ccco1)NC1=C2CCCC1 (stereo unspecified) | > 100 µM (inactive) | > 100 µM (inactive) | > 100 µM (inactive) | > 100 µM (inactive) |  | > 100 µM (inactive) | > 100 µM (inactive) |  | > 100 µM (inactive) | > 100 µM (inactive) | > 100 µM (inactive) | > 100 µM (inactive) |  | > 100 µM (inactive) | > 100 µM (inactive) | > 100 µM (inactive) | > 100 µM (inactive) | > 100 µM (inactive) | > 100 µM (inactive)
